The numbers were not newly measured in patent publication US8664220B2, “Polycyclic compounds as lysophosphatidic acid receptor antagonists” (Amira Pharmaceuticals, Inc., priority 2009, dated 2014), which cites them from elsewhere.

In this data set the test system is nerve-injured mice. The settings on record: pretreatment; cited from earlier work.

In the case of `C[C@@H](N)[C@H]1CC[C@H](C(=O)Nc2ccncc2)CC1` [Compound Y-27632], the allodynia and hyperalgesia entry is “completely abolished”.
